Assay results published in patent US10759758B2, “Polymorphic form of N-{6-(hydroxypropan-2-yl)-2-[2-(methylsulphonyl)ethyl]-2H-indazol-5-yl}-6-(trifluoromethyl)pyridine-2-carboxamide” (Bayer Pharma Aktiengesellschaft, priority 2016, dated 2020).

Experiment: Thermodynamic stability of the solid forms of compound (I)
Type: physicochemical
Details: compared with the other solid forms of compound (I)

## CC(C)(O)c1cc2nn(CCS(C)(=O)=O)cc2cc1NC(=O)c1cccc(C(F)(F)F)n1 [Polymorphic form B, N-{6-(2-Hydroxypropan-2-yl)-2-[2-(methylsulphonyl)ethyl]-2H-indazol-5-yl}-6-(trifluoromethyl)pyridine-2-carboxamide]
  thermodynamic stability among solid forms: thermodynamically stable form
